Tested on: Holstein calves
Experiment: Test on anion regulating activity (urinary pH)
Type: in vivo
Settings: Table 3 and FIG. 1 summary
Procedure: If a DCAD value is positive, the urinary pH is 7-8.5. It is also known that if an anion regulator is added, and as a result the feed is changed to show a negative DCAD value, the urinary pH of animals to which such feed has been fed is reduced and will show a value of 6.5-5.5 when the anion regulator has been added in an appropriate amount. […] (1995), Sep., p.634 (Japanese version).
Experiments were conducted using six(6) Holstein calves with a body weight of approximately 200 kg. They were divided into three groups, two calves in a group. The groups were each fed with one of the following three(3) types of experimental feeds. Feed consisting of […] concentrated feed (“Beef-fast”, ex Itochu Feed Co.), 550 g of timothy-hay and 550 g of alfalfa hay cubes was fed, twice a day, at 9 and 16 o'clock, for one week before the start of the experiment, for adaptation.
These three(3) types of mixed feeds were separately supplied to each group at 9 and 16 o'clock on the same day and at 9 o'clock on the next day. After 10 minutes, each mixed feed was removed, and subsequently, a mixture of 900 g of concentrated feed, 500 g of timothy-hay and 550 g of alfalfa hay cubes, was supplied instead.
In the table and figure, for example, terms Lys HCl 1 and Lys HCl 2 indicate respectively the two calves in the first group which was fed with Lys HCl (Lys HCl-feeded group).

Cl.N=C(N)NCCC[C@H](N)C(=O)O [L-arginine hydrochloride, L-arginine monohydrochloride]
Effectiveness as anion regulator: effective as anion regulators
Reduction of urinary pH compared with NH4Cl: reduce urinary pH better than NH4Cl

Cl.NCCCC[C@H](N)C(=O)O [L-lysine hydrochloride, L-lysine monohydrochloride]
Effectiveness as anion regulator: effective as anion regulators
Reduction of urinary pH compared with NH4Cl: reduce urinary pH better than NH4Cl

From US20020127268A1, “Anion regulator for ruminants” (AJINOMOTO CO., INC., priority 1997, published 2002)
